This assay concerns A204. The experiment in a line: relative viability vs DMSO control (72 h) (fraction); higher = more viable cells. The procedure, abridged: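 Relative viability is percent growth read by ATPLite and averaged over up to triplicate wells. Sarcoma cells were seeded in 384-well plates to reach 80–90% confluence and given 2.5 µl of serially diluted compound after 24 h, from source plates of 10 mM to 0.0002 mM. Incubation lasted 72 h at 37 °C, 5% CO2, with 0.1% DMSO vehicle and a 5 µM positive control, and the data were rescaled so 1 equals full and 0 equals none.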

The values that follow come from the supplement of paper PMC10883282.

± gives the standard deviation of the averaged measurements.

Take `CC[C@H](Nc1ncnc2[nH]cnc12)c1nc2cccc(F)c2c(=O)n1-c1ccccc1` [Idelalisib]: the relative viability reads like this: (0.00017 µM) 1.08 ± 0.023; (0.00051 µM) 1.1 ± 0.043; (0.00152 µM) 1.1 ± 0.032; (0.00457 µM) 1.1 ± 0.046; (0.01372 µM) 1.07 ± 0.081; (0.04115 µM) 1.06 ± 0.041. Besides, the relative viability (0.1235 µM) is 1.03 ± 0.023; the relative viability (0.3704 µM) was found to be 1.02 ± 0.021; the relative viability (1.111 µM) was found to be 0.973 ± 0.067; the relative viability (3.333 µM) stood at 0.835 ± 0.015; the relative viability (10 µM) amounted to 0.61 ± 0.033.

With `Cc1cc(Nc2ncnc3ccc(NC4=NC(C)(C)CO4)cc23)ccc1Oc1ccn2ncnc2c1` [Tucatinib], the relative viability turned out to be 1.092 ± 0.0055 (0.00017 µM); 1.08 ± 0.021 (0.00051 µM); 1.08 ± 0.024 (0.00152 µM); 1.1 ± 0.016 (0.00457 µM); 1.1 ± 0.012 (0.01372 µM); 1.08 ± 0.011 (0.04115 µM). The relative viability by setting is: (0.1235 µM) 1.09 ± 0.025; (0.3704 µM) 1.02 ± 0.052; (1.111 µM) 1.02 ± 0.067; (3.333 µM) 0.985 ± 0.13; (10 µM) 0.636 ± 0.034.

Consider `Cn1cc(-c2cc3c(N4CCN(c5ncc([C@@](C)(N)c6ccc(F)cc6)cn5)CC4)ncnn3c2)cn1` [Avapritinib], for which the relative viability reads like this: (0.00017 µM) 1.02 ± 0.02; (0.00051 µM) 1.06 ± 0.024; (0.00152 µM) 1.05 ± 0.023; (0.00457 µM) 1.05 ± 0.063; (0.01372 µM) 1.02 ± 0.056; (0.04115 µM) 0.959 ± 0.061. Besides, the relative viability came to 0.77 ± 0.019 (0.1235 µM); 0.507 ± 0.013 (0.3704 µM); 0.359 ± 0.024 (1.111 µM); 0.282 ± 0.017 (3.333 µM); 0.212 ± 0.012 (10 µM).

For the compound `CC(C)(C)c1cc(NC(=O)Nc2ccc(-c3cn4c(n3)sc3cc(OCCN5CCOCC5)ccc34)cc2)no1` [Quizartinib], the relative viability was 1.05 ± 0.035 (0.00017 µM); 1.08 ± 0.02 (0.00051 µM); 1.06 ± 0.032 (0.00152 µM); 1.08 ± 0.023 (0.00457 µM); 1.067 ± 0.0075 (0.01372 µM); 0.946 ± 0.039 (0.04115 µM). Further, the relative viability is 0.752 ± 0.052 (0.1235 µM); 0.472 ± 0.011 (0.3704 µM); 0.42 ± 0.02 (1.111 µM); 0.369 ± 0.032 (3.333 µM); 0.396 ± 0.021 (10 µM).

For the compound `O=C(Nc1cnn2ccc(N3CCC[C@@H]3c3cc(F)ccc3F)nc12)N1CC[C@H](O)C1` [Larotrectinib], the relative viability reads like this: (0.00017 µM) 1.11 ± 0.015; (0.00051 µM) 1.1 ± 0.029; (0.00152 µM) 1.11 ± 0.037; (0.00457 µM) 1.06 ± 0.043; (0.01372 µM) 1.11 ± 0.039; (0.04115 µM) 1.08 ± 0.02. Moreover, the relative viability runs as follows: (0.1235 µM) 1.09 ± 0.046; (0.3704 µM) 1.11 ± 0.04; (1.111 µM) 1.06 ± 0.057; (3.333 µM) 1.115 ± 0.011; (10 µM) 1.09 ± 0.016.

In the case of `Cc1nc(-c2cn3c(n2)-c2ccc(-c4cnn(C(C)(C)C(N)=O)c4)cc2OCC3)n(C(C)C)n1` [Taselisib], the relative viability turned out to be 1.05 ± 0.1 (0.00017 µM); 1.03 ± 0.086 (0.00051 µM); 0.993 ± 0.039 (0.00152 µM); 0.924 ± 0.061 (0.00457 µM); 0.852 ± 0.085 (0.01372 µM); 0.742 ± 0.041 (0.04115 µM). In addition, the relative viability was 0.609 ± 0.021 (0.1235 µM); 0.538 ± 0.028 (0.3704 µM); 0.435 ± 0.019 (1.111 µM); 0.354 ± 0.038 (3.333 µM); 0.29 ± 0.02 (10 µM).

`Cc1nc(NC(=O)N2CCC[C@H]2C(N)=O)sc1-c1ccnc(C(C)(C)C(F)(F)F)c1` [Alpelisib]: the relative viability was 0.942 ± 0.046 (0.00017 µM); 0.988 ± 0.037 (0.00051 µM); 1 ± 0.02 (0.00152 µM); 1.02 ± 0.06 (0.00457 µM); 0.983 ± 0.019 (0.01372 µM); 0.925 ± 0.035 (0.04115 µM). The compound further came in with a relative viability (0.1235 µM) of 0.895 ± 0.038; a relative viability (0.3704 µM) of 0.7675 ± 0.0064; a relative viability (1.111 µM) of 0.651 ± 0.027; a relative viability (3.333 µM) of 0.557 ± 0.052; a relative viability (10 µM) of 0.414 ± 0.03.

For the compound `Cn1cnc2c(F)c(Nc3ccc(Br)cc3F)c(C(=O)NOCCO)cc21` [Binimetinib], the relative viability was 1.04 ± 0.031 (0.00017 µM); 1.06 ± 0.029 (0.00051 µM); 1.063 ± 0.0083 (0.00152 µM); 1.07 ± 0.019 (0.00457 µM); 1.04 ± 0.015 (0.01372 µM); 1.02 ± 0.043 (0.04115 µM). Also, the relative viability reads like this: (0.1235 µM) 1.02 ± 0.023; (0.3704 µM) 0.9365 ± 0.0019; (1.111 µM) 0.922 ± 0.023; (3.333 µM) 0.902 ± 0.038; (10 µM) 0.713 ± 0.023.

With `CCc1cc2c(cc1N1CCC(N3CCOCC3)CC1)C(C)(C)c1[nH]c3cc(C#N)ccc3c1C2=O` [Alectinib], the relative viability reads like this: (0.00017 µM) 1.09 ± 0.015; (0.00051 µM) 1.07 ± 0.028; (0.00152 µM) 1.09 ± 0.023; (0.00457 µM) 1.1 ± 0.036; (0.01372 µM) 1.08 ± 0.012; (0.04115 µM) 1.09 ± 0.0079. This compound also displayed a relative viability (0.1235 µM) of 1.13 ± 0.021; a relative viability (0.3704 µM) of 1.13 ± 0.014; a relative viability (1.111 µM) of 1.104 ± 0.005; a relative viability (3.333 µM) of 1.14 ± 0.036; a relative viability (10 µM) of 1.14 ± 0.07.
